Measured values as given in US11358948B2, “CRBN ligands and uses thereof” (Kymera Therapeutics, Inc., priority 2017, dated 2022).
Structures can show the parent of a compound that is named as a salt.

What follows are compounds tested against Untagged CRBN-DDB1 complex (Homo sapiens (Human), UniProt Q96SW2) (assay: Fluorescence Polarization (FP) assay, displacement of Cy5-labeled thalidomide). Settings: untagged CRBN-DDB1 50 nM, Cy5-labeled thalidomide 20 nM, 10 min room temperature.
Type: binding
Protocol: The final solution contained 50 mM HEPES, 200 mM NaCl and 2 mM DTT, pH 7.5. The mixtures were incubated at room temperature for 10 min. The FP signals were recorded on an EnVision plate reader (Perkin Elmer) using the following settings: Excitation Light (%): 100; Measurement Height: 12; G-Factor: 1; Detector Gain 1: 500; Detector Gain 2: 500; Flash Number: 100. Dose-dependent loss of FP signals was fitted by four-parameter Logistic Function using GraphPad Prism 7.0 and the IC50 values were reported for each compound.

Sequence of Untagged CRBN-DDB1 complex (Q96SW2 whole entry): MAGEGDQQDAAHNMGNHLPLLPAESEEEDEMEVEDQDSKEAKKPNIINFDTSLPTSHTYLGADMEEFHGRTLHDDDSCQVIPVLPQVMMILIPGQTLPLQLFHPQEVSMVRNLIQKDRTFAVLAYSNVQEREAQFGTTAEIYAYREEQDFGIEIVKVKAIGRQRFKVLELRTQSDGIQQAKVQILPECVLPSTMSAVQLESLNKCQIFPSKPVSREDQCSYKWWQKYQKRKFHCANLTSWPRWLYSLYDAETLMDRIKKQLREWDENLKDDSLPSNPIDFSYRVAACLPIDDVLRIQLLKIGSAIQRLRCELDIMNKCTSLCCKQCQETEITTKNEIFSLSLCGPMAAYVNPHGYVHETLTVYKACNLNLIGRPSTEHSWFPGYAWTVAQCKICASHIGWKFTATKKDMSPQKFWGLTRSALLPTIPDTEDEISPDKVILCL
Sequence of Untagged CRBN-DDB1 complex (Q16531 whole entry partner): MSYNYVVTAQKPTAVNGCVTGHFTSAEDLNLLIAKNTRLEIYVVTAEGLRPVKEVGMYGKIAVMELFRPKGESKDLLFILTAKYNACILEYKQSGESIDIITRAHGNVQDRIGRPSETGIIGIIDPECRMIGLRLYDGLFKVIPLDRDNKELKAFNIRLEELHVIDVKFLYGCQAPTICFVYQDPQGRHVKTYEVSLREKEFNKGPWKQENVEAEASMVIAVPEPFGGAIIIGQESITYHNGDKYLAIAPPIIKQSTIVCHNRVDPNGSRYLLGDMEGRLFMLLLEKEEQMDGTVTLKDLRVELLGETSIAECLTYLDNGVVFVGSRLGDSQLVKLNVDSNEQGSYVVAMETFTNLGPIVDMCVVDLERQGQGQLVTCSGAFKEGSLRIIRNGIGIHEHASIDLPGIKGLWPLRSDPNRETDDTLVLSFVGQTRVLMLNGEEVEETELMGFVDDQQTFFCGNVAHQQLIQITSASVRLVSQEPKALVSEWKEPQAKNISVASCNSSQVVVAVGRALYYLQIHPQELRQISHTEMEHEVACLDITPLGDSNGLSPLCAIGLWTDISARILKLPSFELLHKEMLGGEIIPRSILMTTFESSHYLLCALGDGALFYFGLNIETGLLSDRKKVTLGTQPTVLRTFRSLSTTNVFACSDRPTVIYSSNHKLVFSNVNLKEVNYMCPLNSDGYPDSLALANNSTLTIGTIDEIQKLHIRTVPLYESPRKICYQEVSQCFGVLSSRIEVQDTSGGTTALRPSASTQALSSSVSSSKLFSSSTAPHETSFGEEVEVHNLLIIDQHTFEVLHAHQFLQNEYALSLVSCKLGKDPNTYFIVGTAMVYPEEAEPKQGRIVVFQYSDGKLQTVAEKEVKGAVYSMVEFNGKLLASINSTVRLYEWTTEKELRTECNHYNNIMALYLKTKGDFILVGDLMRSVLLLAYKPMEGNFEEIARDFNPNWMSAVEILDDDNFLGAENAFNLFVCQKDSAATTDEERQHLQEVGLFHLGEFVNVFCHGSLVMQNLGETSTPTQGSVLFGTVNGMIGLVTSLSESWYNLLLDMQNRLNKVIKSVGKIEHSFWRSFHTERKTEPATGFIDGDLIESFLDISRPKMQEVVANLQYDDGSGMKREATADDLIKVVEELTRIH

SMILES	IC50 [nM]
O=C1CCC(N2C(=O)Cc3ccccc32)C(=O)N1 (centres unmarked) [Compound I-3, 3-(2-Oxo-2,3-dihydro-1H-indol-1-yl)piperidine-2,6-dione]	> 100000

The compounds below were run against His-tagged CRBN-DDB1 complex (Homo sapiens (Human), UniProt Q96SW2) (assay: Time-Resolved Fluorescence Resonance Energy Transfer (TR-FRET) assay, displacement of Cy5-labeled thalidomide). Settings: read-out: CRBN HTRF IC50.
Type: binding
Protocol: The mixture were incubated at room temperature for 1 hour. […] Quantitative loss of FRET efficiency as a function of compound concentrations was fitted by a four-parameter Logistic Function using GraphPad Prism 7.0 and the IC50 values were reported for each compound.

Sequence of His-tagged CRBN-DDB1 complex (Q96SW2 whole entry): as the sequence (Q96SW2 whole entry) above
Sequence of His-tagged CRBN-DDB1 complex (Q16531 whole entry partner): as the sequence (Q16531 whole entry partner) above

SMILES	IC50 [nM]
O=C1CCC(N2C[C@H](c3cccc(Br)c3)OC2=O)C(=O)N1 (single isomer, unassigned) [Compound I-84, (R)-3-((S)-5-(3-bromophenyl)-2-oxooxazolidin-3-yl)piperidine-2,6-dione or (S)-3-((S)-5-(3-bromophenyl)-2-oxooxazolidin-3-yl)piperidine-2,6-dione]	< 1000
O=C1CCC(N2C(=O)Cc3ccccc32)C(=O)N1 (centres unmarked) [Compound I-3, 3-(2-Oxo-2,3-dihydro-1H-indol-1-yl)piperidine-2,6-dione]	10000 to 100000
CN(C)Cc1ccc2c(c1)n(C)c(=O)n2C1CCC(=O)NC1=O (centres unmarked) [Compound I-61, 3-(5-((dimethylamino)methyl)-3-methyl-2-oxo-2,3-dihydro-1H-benzo[d]imidazol-1-yl)piperidine-2,6-dione]	1000 to 10000
CC(=O)Nc1ccc2c(c1)n(C)c(=O)n2C1CCC(=O)NC1=O (centres unmarked) [Compound I-62, N-(1-(2,6-dioxopiperidin-3-yl)-3-methyl-2-oxo-2,3-dihydro-1H-benzo[d]imidazol-5-yl)acetamide]	< 1000
Cc1ccc2c(c1)n(C)c(=O)n2C1CCC(=O)NC1=O (centres unmarked) [Compound I-63, 3-(3,5-dimethyl-2-oxo-2,3-dihydro-1H-benzo[d]imidazol-1-yl)piperidine-2,6-dione]	< 1000
Cn1c(=O)n(C2CCC(=O)NC2=O)c2ccc(CN)cc21 (centres unmarked) [Compound I-64, 3-(5-(Aminomethyl)-3-methyl-2-oxo-2,3-dihydro-1H-benzo[d]imidazol-1-yl)piperidine-2,6-dione]	< 1000
Cn1c(=O)n(C2CCC(=O)NC2=O)c2ccc(N)cc21 (centres unmarked) [Compound I-65, 3-(5-Amino-3-methyl-2-oxo-2,3-dihydro-1H-1,3-benzodiazol-1-yl)piperidine-2,6-dione Hydrochloride]	< 1000
CC(=O)NCc1ccc2c(c1)n(C)c(=O)n2C1CCC(=O)NC1=O (centres unmarked) [Compound I-66, N-((1-(2,6-dioxopiperidin-3-yl)-3-methyl-2-oxo-2,3-dihydro-1H-benzo[d]imidazol-5-yl)methyl)acetamide]	< 1000
CCNC(=O)Nc1ccc2c(c1)n(C)c(=O)n2C1CCC(=O)NC1=O (centres unmarked) [Compound I-67, 1-(1-(2,6-dioxopiperidin-3-yl)-3-methyl-2-oxo-2,3-dihydro-1H-benzo[d]imidazol-5-yl)-3-ethylurea]	< 1000
CNc1ccc2c(c1)n(C)c(=O)n2C1CCC(=O)NC1=O (centres unmarked) [Compound I-68, 3-(3-methyl-5-(methylamino)-2-oxo-2,3-dihydro-1H-benzo[d]imidazol-1-yl)piperidine-2,6-dione]	< 1000
CN(C)c1ccc2c(c1)n(C)c(=O)n2C1CCC(=O)NC1=O (centres unmarked) [Compound I-69, 3-(5-(dimethylamino)-3-methyl-2-oxo-2,3-dihydro-1H-benzo[d]imidazol-1-yl)piperidine-2,6-dione]	< 1000
CNC(=O)c1ccc2c(c1)n(C)c(=O)n2C1CCC(=O)NC1=O (centres unmarked) [Compound I-70, 1-(2,6-Dioxopiperidin-3-yl)-N,3-dimethyl-2-oxo-2,3-dihydro-1H-benzo[d]imidazole-5-carboxamide]	1000 to 10000
CCNC(=O)NCc1ccc2c(c1)n(C)c(=O)n2C1CCC(=O)NC1=O (centres unmarked) [Compound I-71, 1-((1-(2,6-dioxopiperidin-3-yl)-3-methyl-2-oxo-2,3-dihydro-1H-benzo[d]imidazol-5-yl)methyl)-3-ethylurea]	< 1000
O=C1CC[C@@H](N2C[C@H](c3ccc(Br)cc3)OC2=O)C(=O)N1 [Compound I-72, (R)-3-((S)-5-(4-bromophenyl)-2-oxooxazolidin-3-yl)piperidine-2,6-dione]	< 1000
O=C1CC[C@H](N2C[C@H](c3ccc(Br)cc3)OC2=O)C(=O)N1 [Compound I-73, (S)-3-((S)-5-(4-bromophenyl)-2-oxooxazolidin-3-yl)piperidine-2,6-dione]	10000 to 100000
Cn1c(=O)n(C2CCC(=O)NC2=O)c2ccc(CNC(N)=O)cc21 (centres unmarked) [Compound I-74, 1-((1-(2,6-dioxopiperidin-3-yl)-3-methyl-2-oxo-2,3-dihydro-1H-benzo[d]imidazol-5-yl)methyl)urea]	< 1000
Cn1c(=O)n(C2CCC(=O)NC2=O)c2cccc([N+](=O)[O-])c21 (centres unmarked) [Compound I-75, 3-(3-methyl-4-nitro-2-oxo-2,3-dihydro-1H-1,3-benzodiazol-1-yl)piperidine-2,6-dione]	< 1000
CCOC(=O)NCc1ccc2c(c1)n(C)c(=O)n2C1CCC(=O)NC1=O (centres unmarked) [Compound I-76, ethyl ((1-(2,6-dioxopiperidin-3-yl)-3-methyl-2-oxo-2,3-dihydro-1H-benzo[d]imidazol-5-yl)methyl)carbamate]	< 1000
CC(C)(C)OC(=O)NCCOCCOCCOCCOCC#Cc1ccc([C@H]2CN([C@H]3CCC(=O)NC3=O)C(=O)O2)cc1 [Compound I-77, tert-butyl (15-(4-((S)-3-((S)-2,6-dioxopiperidin-3-yl)-2-oxooxazolidin-5-yl)phenyl)-3,6,9,12-tetraoxapentadec-14-yn-1-yl)carbamate]	< 1000
Cn1c(=O)n(C2CCC(=O)NC2=O)c2cccc(C#N)c21 (centres unmarked) [Compound I-78]	< 1000
Cc1cc(-c2ccc3c(c2)n(C)c(=O)n3C2CCC(=O)NC2=O)n[nH]1 (centres unmarked) [Compound I-79, 3-(3-methyl-5-(3-methyl-1H-pyrazol-5-yl)-2-oxo-2,3-dihydro-1H-benzo[d]imidazol-1-yl)piperidine-2,6-dione]	< 1000
Cc1nc(-c2ccc3c(c2)n(C)c(=O)n3C2CCC(=O)NC2=O)c[nH]1 (centres unmarked) [Compound I-80, 3-(3-methyl-5-(2-methyl-1H-imidazol-5-yl)-2-oxo-2,3-dihydro-1H-benzo[d]imidazol-1-yl)piperidine-2,6-dione]	< 1000
Cn1c(=O)n(C2CCC(=O)NC2=O)c2cccc(N)c21 (centres unmarked) [Compound I-81, 3-(4-amino-3-methyl-2-oxo-2,3-dihydro-1H-benzo[d]imidazol-1-yl)piperidine-2,6-dione]	< 1000
Cn1c(=O)n(C2CCC(=O)NC2=O)c2ccc(-c3cn(CCOCCOCCOCCNC(=O)OC(C)(C)C)nn3)cc21 (centres unmarked) [Compound I-82, tert-butyl (2-(2-(2-(2-(4-(1-(2,6-dioxopiperidin-3-yl)-3-methyl-2-oxo-2,3-dihydro-1H-benzo[d]imidazol-5-yl)-1H-1,2,3-triazol-1-yl)ethoxy)ethoxy)ethoxy)ethyl)carbamate]	< 1000
CC(C)(C)OC(=O)NCCOCCOCCOCCOCCCc1ccc([C@H]2CN(C3CCC(=O)NC3=O)C(=O)O2)cc1 (stereo partly drawn) [Compound I-83, tert-butyl (15-(4-((5S)-3-(2,6-dioxopiperidin-3-yl)-2-oxooxazolidin-5-yl)phenyl)-3,6,9,12-tetraoxapentadecyl)carbamate]	< 1000
Cn1c(=O)n(C2CCC(=O)NC2=O)c2ccc(CCCOCCOCCOCCOCCNC(=O)OC(C)(C)C)cc21 (centres unmarked) [Compound I-85, tert-butyl (15-(1-(2,6-dioxopiperidin-3-yl)-3-methyl-2-oxo-2,3-dihydro-1H-benzo[d]imidazol-5-yl)-3,6,9,12-tetraoxapentadecyl)carbamate]	< 1000
Cn1c(=O)n(C2CCC(=O)NC2=O)c2cccc(C#CCOCCOCCNC(=O)OC(C)(C)C)c21 (centres unmarked) [Compound I-86, tert-butyl (2-(2-((3-(1-(2,6-dioxopiperidin-3-yl)-3-methyl-2-oxo-2,3-dihydro-1H-benzo[d]imidazol-4-yl)prop-2-yn-1-yl)oxy)ethoxy)ethyl)carbamate]	< 1000
Cn1c(=O)n(C2CCC(=O)NC2=O)c2ccc(C(N)=O)cc21 (centres unmarked) [Compound I-90, 1-(2,6-dioxopiperidin-3-yl)-3-methyl-2-oxo-2,3-dihydro-1H-benzo[d]imidazole-5-carboxamide]	> 100000
